The structures appear in SMILES notation. Bridge positions count the residues as written; N and C are the ends. Square brackets hold non-standard residues; d marks the D form. Peptide text beside a SMILES is read from it. * marks the point of attachment. ξ: configuration not given here. Bip = N[C@@H](Cc1ccc(-c2ccccc2)cc1)C(=O)O; Phe(3-Me) = Cc1cccc(C[C@H](N)C(=O)O)c1; 4Pal = N[C@@H](Cc1ccncc1)C(=O)O; Cha = N[C@@H](CC1CCCCC1)C(=O)O; NMeN = CN[C@@H](CC(N)=O)C(=O)O; Thr(3ξ) = CC(O)[C@H](N)C(=O)O; Carboxymethyl = O=C(O)C*; Orn = NCCC[C@H](N)C(=O)O; Aun = NCCCCCCCCCCC(=O)O; Dab = NCC[C@H](N)C(=O)O; AEEA = NCCOCCOCC(=O)O

The target of the assay is T1, PD-1/PD-L1 interaction (PE-labeled human PD-L1-Ig binding to Jurkat cell line over-expressing human PD-1) (Homo sapiens, UniProt Q15116).
T1 construct: expressed in transfected cells; host or cells: Jurkat
T1 sequence (Q15116 25-288): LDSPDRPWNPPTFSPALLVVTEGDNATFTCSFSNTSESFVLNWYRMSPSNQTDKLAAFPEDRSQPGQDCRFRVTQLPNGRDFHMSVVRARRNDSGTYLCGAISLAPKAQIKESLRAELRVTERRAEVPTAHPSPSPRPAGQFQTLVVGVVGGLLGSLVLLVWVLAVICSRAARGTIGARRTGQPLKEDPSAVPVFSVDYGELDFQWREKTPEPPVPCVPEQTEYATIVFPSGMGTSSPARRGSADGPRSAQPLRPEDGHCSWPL
Description: Jurkat-PD-1 Cell Binding High-Content Screening Assay (CBA). It counts as cell-based. The note with it: Jurkat cell line over-expressing human PD-1; PE-labeled PD-L1-Ig 20 nM final; read-out: Jurkat hPD1-PDL1 IC50. The procedure, abridged: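 Binding of fluorescent PD-L1-Ig (20 nM final) to Jurkat-PD-1 cells was measured by automated imaging after 1 h, following a 2 h compound pre-treatment at 37° C.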
Regarding `Cc1cccc(C[C@@H]2NC(=O)[C@H](CC(=O)O)NC(=O)[C@H](Cc3ccc(OCC(=O)O)cc3)NC(=O)[C@H](C(C)O)NC(=O)CSC[C@@H](C(=O)N(C)[C@@H](CC(N)=O)C(=O)NCCCCCCCCCCC(=O)O)NC(=O)[C@H](CCCCN)NC(=O)[C@H](C(C)C)NC(=O)[C@H](CC3CCCCC3)NC(=O)[C@H](CCN)NC(=O)[C@@H](CC(C)C)NC(=O)[C@H](CCCN)NC(=O)[C@H](C(C)C)NC(=O)[C@H](Cc3ccc(-c4ccccc4)cc3)NC(=O)[C@H](C(C)C)NC2=O)c1` (stereo partly drawn) [Compound 3340] ({CH2CO}-[Thr(3ξ)]Y(Carboxymethyl)D[Phe(3-Me)]V[Bip]V[Orn][dL][Dab][Cha]VKC[NMeN][Aun]-OH; thioether N-14), the IC50 turned out to be 8.7 nM.

Take `CC(=O)NCCCC[C@@H]1NC(=O)[C@H](C(C)C)NC(=O)[C@H](CC2CCCCC2)NC(=O)[C@H](CCN)NC(=O)[C@@H](CC(C)C)NC(=O)[C@H](CCCN)NC(=O)[C@H](C(C)C)NC(=O)[C@H](Cc2ccc(-c3ccccc3)cc2)NC(=O)[C@H](C(C)C)NC(=O)[C@H](Cc2c[nH]c3ccccc23)NC(=O)[C@H](CC(=O)O)NC(=O)[C@H](Cc2ccc(OCC(=O)O)cc2)NC(=O)[C@H](CCCNC(=N)N)NC(=O)CSC[C@@H](C(=O)NCCOCCOCC(=O)NCCCCCCCCCCC(=O)O)NC1=O` [Compound 3341] ({CH2CO}-RY(Carboxymethyl)DWV[Bip]V[Orn][dL][Dab][Cha]VK(Ac)C[AEEA][Aun]-OH; thioether N-14): the IC50 was 7.4 nM.

On to `Cc1cccc(C[C@@H]2NC(=O)[C@H](CC(=O)O)NC(=O)[C@H](Cc3ccc(OCC(=O)O)cc3)NC(=O)[C@H](CCCNC(=N)N)NC(=O)CSC[C@@H](C(=O)N[C@@H](CCN)C(=O)NCCCCCCCCCCC(=O)O)NC(=O)[C@H](CCC(=O)O)NC(=O)[C@H](C(C)C)NC(=O)[C@H](CC3CCCCC3)NC(=O)[C@H](CCN)NC(=O)[C@@H](CC(C)C)NC(=O)[C@H](CCCN)NC(=O)[C@H](Cc3ccc(O)cc3)NC(=O)[C@H](Cc3ccc(-c4ccccc4)cc3)NC(=O)[C@H](CC(C)C)NC2=O)c1` [Compound 3342] ({CH2CO}-RY(Carboxymethyl)D[Phe(3-Me)]L[Bip]Y[Orn][dL][Dab][Cha]VEC[Dab][Aun]-OH; thioether N-14), for which the IC50 came out at 38.3 nM.

For `CC(C)C[C@H]1NC(=O)[C@H](CCCN)NC(=O)[C@H](Cc2ccc(O)cc2)NC(=O)[C@H](Cc2ccc(-c3ccccc3)cc2)NC(=O)[C@H](C(C)C)NC(=O)[C@H](Cc2c[nH]c3ccccc23)NC(=O)[C@H](CC(=O)O)NC(=O)[C@H](Cc2ccc(OCC(=O)O)cc2)NC(=O)[C@H](CCCNC(=N)N)NC(=O)CSC[C@@H](C(=O)N[C@@H](CCN)C(=O)NCCCCCCCCCCC(=O)O)NC(=O)[C@H](Cc2ccc(O)cc2)NC(=O)[C@H](C(C)C)NC(=O)[C@H](CC2CCCCC2)NC(=O)[C@H](CCN)NC1=O` [Compound 3343] ({CH2CO}-RY(Carboxymethyl)DWV[Bip]Y[Orn][dL][Dab][Cha]VYC[Dab][Aun]-OH; thioether N-14), the IC50 is 66.2 nM.

As to `CC(C)C[C@H]1NC(=O)[C@H](CCCN)NC(=O)[C@H](C(C)C)NC(=O)[C@H](Cc2ccc(-c3ccccc3)cc2)NC(=O)[C@H](C(C)C)NC(=O)[C@H](Cc2c[nH]c3ccccc23)NC(=O)[C@H](CC(=O)O)NC(=O)[C@H](Cc2ccc(OCC(=O)O)cc2)NC(=O)[C@H](CCCNC(=N)N)NC(=O)CSC[C@@H](C(=O)N[C@@H](CCCN)C(=O)NCCCCCCCCCCC(=O)O)NC(=O)[C@H](C(C)O)NC(=O)[C@H](C(C)C)NC(=O)[C@H](CC2CCCCC2)NC(=O)[C@H](CCN)NC1=O` (stereo partly drawn) [Compound 3344] ({CH2CO}-RY(Carboxymethyl)DWV[Bip]V[Orn][dL][Dab][Cha]V[Thr(3ξ)]C[Orn][Aun]-OH; thioether N-14), the IC50 was determined as 14.6 nM.

As to `CC(C)C[C@H]1NC(=O)[C@H](CCCN)NC(=O)[C@H](C(C)C)NC(=O)[C@H](Cc2ccc(-c3ccccc3)cc2)NC(=O)[C@H](C(C)C)NC(=O)[C@H](Cc2c[nH]c3ccccc23)NC(=O)[C@H](CC(=O)O)NC(=O)[C@H](Cc2ccc(OCC(=O)O)cc2)NC(=O)[C@H](CCCNC(=N)N)NC(=O)CSC[C@@H](C(=O)N[C@@H](CCCN)C(=O)NCCCCCCCCCCC(=O)O)NC(=O)[C@H](CCC(=O)O)NC(=O)[C@H](C(C)C)NC(=O)[C@H](CC2CCCCC2)NC(=O)[C@H](CCN)NC1=O` [Compound 3345] ({CH2CO}-RY(Carboxymethyl)DWV[Bip]V[Orn][dL][Dab][Cha]VEC[Orn][Aun]-OH; thioether N-14), the IC50 stood at 9.1 nM.

For `CC(C)C[C@H]1NC(=O)[C@H](CCCN)NC(=O)[C@H](C(C)C)NC(=O)[C@H](Cc2ccc(-c3ccccc3)cc2)NC(=O)[C@H](C(C)C)NC(=O)[C@H](Cc2c[nH]c3ccccc23)NC(=O)[C@H](CC(=O)O)NC(=O)[C@H](Cc2ccc(OCC(=O)O)cc2)NC(=O)[C@H](CCCNC(=N)N)NC(=O)CSC[C@@H](C(=O)N[C@@H](CCCN)C(=O)NCCCCCCCCCCC(=O)O)NC(=O)[C@H](CCCN)NC(=O)[C@H](C(C)C)NC(=O)[C@H](CC2CCCCC2)NC(=O)[C@H](CCN)NC1=O` [Compound 3346] ({CH2CO}-RY(Carboxymethyl)DWV[Bip]V[Orn][dL][Dab][Cha]V[Orn]C[Orn][Aun]-OH; thioether N-14), the IC50 worked out at 10.9 nM.

Regarding `CC(C)C[C@H]1NC(=O)[C@H](CCCN)NC(=O)[C@H](C(C)C)NC(=O)[C@H](Cc2ccc(-c3ccccc3)cc2)NC(=O)[C@H](C(C)C)NC(=O)[C@H](Cc2c[nH]c3ccccc23)NC(=O)[C@H](CC(=O)O)NC(=O)[C@H](Cc2ccc(OCC(=O)O)cc2)NC(=O)[C@H](CCCNC(=N)N)NC(=O)CSC[C@@H](C(=O)NCCOCCOCC(=O)NCCCCCCCCCCC(=O)O)NC(=O)[C@H](CCCN)NC(=O)[C@H](C(C)C)NC(=O)[C@H](CC2CCCCC2)NC(=O)[C@H](CCN)NC1=O` [Compound 3347] ({CH2CO}-RY(Carboxymethyl)DWV[Bip]V[Orn][dL][Dab][Cha]V[Orn]C[AEEA][Aun]-OH; thioether N-14), the IC50 was determined as 3.7 nM.

With `Cc1cccc(C[C@@H]2NC(=O)[C@H](CC(=O)O)NC(=O)[C@H](Cc3ccc(OCC(=O)O)cc3)NC(=O)[C@H](Cc3ccncc3)NC(=O)CSC[C@@H](C(=O)N[C@@H](CCCN)C(=O)NCCCCCCCCCCC(=O)O)NC(=O)[C@H](CCCN)NC(=O)[C@H](C(C)C)NC(=O)[C@H](CC3CCCCC3)NC(=O)[C@H](CCN)NC(=O)[C@@H](CC(C)C)NC(=O)[C@H](CCCN)NC(=O)[C@H](C(C)C)NC(=O)[C@H](Cc3ccc(-c4ccccc4)cc3)NC(=O)[C@H](C(C)C)NC2=O)c1` [Compound 3348] ({CH2CO}-[4Pal]Y(Carboxymethyl)D[Phe(3-Me)]V[Bip]V[Orn][dL][Dab][Cha]V[Orn]C[Orn][Aun]-OH; thioether N-14), the IC50 worked out at 12.8 nM.

Regarding `CC(C)C[C@H]1NC(=O)[C@H](CCCN)NC(=O)[C@H](Cc2ccc(O)cc2)NC(=O)[C@H](Cc2ccc(-c3ccccc3)cc2)NC(=O)[C@H](C(C)C)NC(=O)[C@H](Cc2c[nH]c3ccccc23)NC(=O)[C@H](CC(=O)O)NC(=O)[C@H](Cc2ccc(OCC(=O)O)cc2)NC(=O)[C@H](CCCNC(=N)N)NC(=O)CSC[C@@H](C(=O)N[C@@H](CCN)C(=O)NCCCCCCCCCCC(=O)O)NC(=O)[C@H](CCC(=O)O)NC(=O)[C@H](C(C)C)NC(=O)[C@H](CC2CCCCC2)NC(=O)[C@H](CCN)NC1=O` [Compound 3349] ({CH2CO}-RY(Carboxymethyl)DWV[Bip]Y[Orn][dL][Dab][Cha]VEC[Dab][Aun]-OH; thioether N-14), the IC50 came out at 8.5 nM.

One may read the IC50 as the concentration needed to halve the response being measured.

Source of the values: patent US20260022142A1, “MACROCYCLIC IMMUNOMODULATORS” (Bristol-Myers Squibb Company, priority 2022, published 2026).
